3 compounds from US5352667A, “Non-peptidic surrogates of the Arg-Gly-Asp sequence and pharmaceutical compositions comprising them” (priority 1991, dated 1994) can be followed below.

Entries after “also recorded” stand apart in the source; their conditions may differ.

Test [1] has as its system CD4^+ T cell adhesion to 120 kD fragment of FN. The test is described as follows: Inhibition of activated CD4+ T cell adhesion to 120 kD fragment of FN. It counts as cell-based, human. Conditions: for % inhibition of adhesion of activated CD4^+ T cell to 120 kD fragment of FN / % Adhesion of activated CD4^+ T cell to 120 kD fragment of FN: 0.2 mM peptides and surrogates, mAb anti-CD29 1/200, anti-VLA5 1/400 diluted; for % inhibition of adhesion of activated CD4^+ T cell to 120 kD fragment of FN: * P<0.05; for % Adhesion of activated CD4^+ T cell to 120 kD fragment of FN: PMA activated, none 43 ± 4; for T cell adhesion to FN, in words: 0.2 mM, 120 kD fragment of FN. The procedure:
(§1) To examine the adhesive properties of the T cells, 1 μg/50 μl/well of either fibronectin (FN) (Sigma), the 120 kD cell attachment fragment of FN (Telios Pharm. Inc. San Diego, CA), or laminin (LN) (Sigma), were added to 96-flat bottom microtiter-wells for 12 h. Unbound proteins were then washed away and remaining binding sites were blocked with 0.1% bovine serum albumin (BSA) added to the wells for 2 h and washed. CD4+T cells were purified from peripheral blood mononuclear leukocytes obtained from healthy human donors. The mononuclear cells were isolated using a Ficoll gradient, washed and incubated in RPMI supplemented with 10% fetal calf serum (FCS) and antibiotics in petri dishes at 37° C. humidified CO2 incubator. After 2 h, the non-adherent cells were isolated and applied on nylon-wool columns (1.5 h). CD4^+ T cells were then negatively selected by exposure of the cells to a cocktail of anti-CD8, CD19, and CD14 monoclonal antibodies (mAb) conjugated to magnetic-beads (Advanced Magnetics, MA). Unbound cells were recovered and their phenotype was examined. Purity of the CD4^+ T cells was always greater than 92% as determined by FACScan.
(§2) The purified CD4^+ T cells were radioactively labeled with ^51 [Cr](New England Nuclear) in RPMI +20% FCS for 2 h and washed. The cells were counted and seeded (0.2×10^5 cells) on the precoated microtiter wells in the presence or the absence of the various inhibitors. Coating was made either with FN, the 120 kD cell-attachment fragment of FN or with control adhesive protein laminin (LN). The inhibitors were various surrogates according to the invention, other test molecules or mAb. After 30 min incubation (in […] CO2 -- humidified incubator) the T cells were activated by 10 ng/ml phorbol myristate acetate (PMA) and the percent of T cells attached to the protein substrates was measured. Unbound cells were washed away after 20-30 min, the bound cells were lysed and their radioactivity was measured using radioactive counter. The amount of the radioactivity of the cell lysates represent the matrix-adherent cells and percent binding was calculated in comparison to the total radioactivity added to the wells. Activated T cell adhesion to control wells or to wells coated with BSA was always 2-5%; the level of adhesion of the non-activated T cells was always below 5%. Where indicated, 1/200 diluted mAb anti-CD29 (anti-β1 mAb Serotec, GB), or 1/400 diluted anti-VLA5 (the β1α5 FN-integrin receptor) mAb (Telios Pharm. Inc. San Diego), or 0.2 mM of RGD, GRGDSPK or GRGESP peptides (Sigma) were used. The tested non-peptidic surrogates, 0.2 mM in PBS, were used to pretreat the T cells for 15 min before seeding the cells *, P<0.05. The results shown in Tables 1A, 1B and 1C represent data obtained from several experiments that produced essentially similar results.
(§3) The four RGD surrogates, AC-4.

For test [2], the system named is DTH response to OX. The test is described as follows: Inhibition of DTH response to OX in mice (ear swelling). It counts as in vivo, BALB/c mice. Set-up: % inhibition of DTH response: concentration or dose not given beside the values. Conditions: I.V.; for Δ Ear swelling: ± SD, positive control 21 ± 2. The protocol:
To examine the regulatory role of SF-6,5 on T cell immunity and lymphocyte migration in vivo, a delayed-type hypersensitivity (DTH) reaction experiment was performed in which groups of BALB/c mice (6 mice per group) were sensitized on the shaved abdomen with the skin allergen 4-ethoxymethylene-2-phenyl oxazolone (OX) (10 μl of 3% OX in acetone/olive oil) and challenged again 5 days later by applying OX to their ears. The increment in ear swelling was recorded 24 hours later as a measure of DTH. The individual measuring of ear swelling was blinded to the identity of the groups of mice. GRGDS, RGD surrogate compound SF-6,5 and RGE surrogate compound SF-6,6 were administrated I.V. in 200μl PBS into the tail vein on the indicated days. Control groups of mice were treated identically with PBS.
These findings indicate that modulation of cell-mediated immune reactions in vivo may be achieved by relatively low doses of non-peptidic RGD analogue, most probably by means of interfering with lymphocyte migration.

The target of test [3] is GPIIb-IIIa (Homo sapiens, UniProt P05106+P08514). The test is described as follows: Inhibition of the binding capacity of anti-GPIIb-IIIa mAb (PAC-1) to platelets. Conditions: FIG. 6, 0-500μM, ADP-activated platelets. The protocol: To investigate whether the RGD surrogates actually bind to the GPIIb-IIIa integrin, their ability to compete with a monoclonal antibody (mAb) specific to GPIIb-IIIa was investigated. This mAb, designated PAC-1, specific for the activated receptor, binds GPIIb-IIIa in an RGD-dependent manner (Taub, R. et al. (1989) J.Biol.Chem. 264: 259).
ADP-activated platelets were incubated with FITC-conjugated PAC-1 mAb in the presence of various peptidic and non-peptidic compounds, as follows: the platelet rich plasma were gel-filtrated into modified Tryode's solution (137.5 mM Nacl, 4 mN Hepes, 2.6 mM KCl,1 mM MgCl2, 3.3 mM NaH2 PO4, 5.6 mM glucose at pH 7.4) containing 350μg/ml BSA (which was used as the incubation buffer in further steps; Tryode's/BSA). The final count in the cell assays was 2×10^6 per ml. The cells were then activated with 10μM ADP and epinephrine. To examine RGD peptides and related analogues as competitors for the binding capacity of the PAC-1 mAb to platelets, the cells were incubated in 50μl Tryode's/BSA supplemented with 1 mM CaCl2 for 30 min in 25° C., in the presence of 0-500μM peptides or peptide-analogues with 10μg/ml FITC labeled PAC-1. The fluorescence profile of the cells was determined using FACScan (Beckton Dickenson) at 488 nm. In FIG. 6: GRGDSPK (empty circles), GRGESP (filled triangles), compound SF-6,5 (empty triangles), compound SF-6,6 (filled circles) (the data shown here represent results obtained in one of three experiments which were essentially identical).

In test [4] the test system is CD4^+ T cell adhesion to LN. The test is described as follows: Inhibition of activated CD4+ T cell adhesion to laminin (LN). In kind it is cell-based, human. The note with it: for % inhibition of adhesion of activated CD4^+ T cell to LN / % Adhesion of activated CD4^+ T cell to LN: 0.2 mM peptides and surrogates, mAb anti-CD29 1/200, anti-VLA5 1/400 diluted; for % inhibition of adhesion of activated CD4^+ T cell to LN: * P<0.05; for % Adhesion of activated CD4^+ T cell to LN: none 55 ± 5. The protocol:
as §1, §2, §3

The mark [5] stands for this setting: injected on days 1 to 6, * P<0.01.

For the compound `N=C(N)NCCCCCC(=O)NCCCCC(=O)O` [SF-6,5, 6-aza-7-oxo-12-quanidino-dodecanoic acid], the “% inhibition of adhesion of activated CD4^+ T cell to 120 kD fragment of FN” value (shortened to “% inhibition of adhesion … of FN”) in test [1] came to 49%. Moreover, the “% Adhesion of activated CD4^+ T cell to 120 kD fragment of FN” value (“% Adhesion … of FN” below) in test [1] stood at 22 ± 2%. Moreover, the “T cell adhesion to FN, in words” value in test [1] is “most prominent inhibition”. Besides, in test [2], the “Inhibition of DTH response, in words” value is “inhibited the DTH response best when the mice were injected for 6 days; also recorded: better inhibitor of the DTH response than the GRGDS peptide”. Also, the “% inhibition of DTH response” value in test [2] (injected on day 1) is recorded as 20%; in test [2] (injected on days 1, 3) it was 34%; in test [2] (injected on days 1, 3, 5), 62%; in test [2] (injected on days 1 to 6), 95%. For the same compound, the “Δ Ear swelling” value in test [2] (injected on day 1) was 16 ± 3 × 10^-2 mm; in test [2] (injected on days 1, 3, 5, * P<0.01) it was 8 ± 2 × 10^-2 mm; in test [2] (injected on days 1, 3), 13 ± 2 × 10^-2 mm; in test [2] (setting [5]), 2 ± 1 × 10^-2 mm. Further, in test [3], the “Inhibition of PAC-1 binding to platelets, in words” value (“Inhibition of PAC-1 binding” below) is reported as “inhibited PAC-1 staining of the cells in a dose-dependent manner”. Also, the “% inhibition of adhesion of activated CD4^+ T cell to LN” value (“% inhibition of adhesion … to LN” for short) in test [4] was found to be 0%. Also, the “% Adhesion of activated CD4^+ T cell to LN” value (“% Adhesion … to LN” for short) in test [4] came out at 55 ± 6%.
For `N=C(N)NCCCCCC(=O)NCCCCCC(=O)O` [SF-6,6], in test [1], the “% inhibition of adhesion … of FN” value is reported as 0%; the “% Adhesion … of FN” value came out at 46 ± 2%; the “T cell adhesion to FN, in words” value was “did not inhibit T cell adhesion to both FN and LN”. Moreover, the “% inhibition of DTH response” value in test [2] (injected on days 1 to 6) is “None”. Besides, the “Δ Ear swelling” value in test [2] (setting [5]) was 23 ± 4 × 10^-2 mm. Besides, the “Inhibition of PAC-1 binding” value in test [3] is recorded as “failed to inhibit PAC-1 binding to the platelet integrin receptor”. Also, in test [4] (0.2 mM), the “T cell adhesion to LN, in words” value is “did not inhibit T cell adhesion to both FN and LN”. For the same compound, in test [4], the “% inhibition of adhesion … to LN” value is on record as 0% and the “% Adhesion … to LN” value was 52 ± 6%.
Take GRGDSPK [RGD peptide (Sigma)]: in test [1], the “% inhibition of adhesion … of FN” value is recorded as 54%; the “% Adhesion … of FN” value amounted to 20 ± 2%; the “T cell adhesion to FN, in words” value was “specifically inhibited”. Also, the “% inhibition of DTH response” value in test [2] (injected on days 1 to 6) was 20%. Besides, in test [2] (setting [5]), the “Δ Ear swelling” value is listed as 17 ± 3 × 10^-2 mm. The “Inhibition of PAC-1 binding” value in test [3] is “inhibited PAC-1 staining of the cells in a dose-dependent manner”. Besides, in test [4], the “% inhibition of adhesion … to LN” value is given as 0% and the “% Adhesion … to LN” value is recorded as 53 ± 4%.
